Reference: ChEMBL document CHEMBL1201862, “PubChem BioAssay data set” (2004)
The source made the active and inactive calls.

Experiments:
Hexokinase-1 = molecular target: T1, Hexokinase-1 (Homo sapiens, UniProt P19367); test: hexokinase 1 activators, dose response, selectivity assay for HKDC1 activator project, biochemical (AID 504762); assay type: functional
T1 sequence (P19367 whole entry): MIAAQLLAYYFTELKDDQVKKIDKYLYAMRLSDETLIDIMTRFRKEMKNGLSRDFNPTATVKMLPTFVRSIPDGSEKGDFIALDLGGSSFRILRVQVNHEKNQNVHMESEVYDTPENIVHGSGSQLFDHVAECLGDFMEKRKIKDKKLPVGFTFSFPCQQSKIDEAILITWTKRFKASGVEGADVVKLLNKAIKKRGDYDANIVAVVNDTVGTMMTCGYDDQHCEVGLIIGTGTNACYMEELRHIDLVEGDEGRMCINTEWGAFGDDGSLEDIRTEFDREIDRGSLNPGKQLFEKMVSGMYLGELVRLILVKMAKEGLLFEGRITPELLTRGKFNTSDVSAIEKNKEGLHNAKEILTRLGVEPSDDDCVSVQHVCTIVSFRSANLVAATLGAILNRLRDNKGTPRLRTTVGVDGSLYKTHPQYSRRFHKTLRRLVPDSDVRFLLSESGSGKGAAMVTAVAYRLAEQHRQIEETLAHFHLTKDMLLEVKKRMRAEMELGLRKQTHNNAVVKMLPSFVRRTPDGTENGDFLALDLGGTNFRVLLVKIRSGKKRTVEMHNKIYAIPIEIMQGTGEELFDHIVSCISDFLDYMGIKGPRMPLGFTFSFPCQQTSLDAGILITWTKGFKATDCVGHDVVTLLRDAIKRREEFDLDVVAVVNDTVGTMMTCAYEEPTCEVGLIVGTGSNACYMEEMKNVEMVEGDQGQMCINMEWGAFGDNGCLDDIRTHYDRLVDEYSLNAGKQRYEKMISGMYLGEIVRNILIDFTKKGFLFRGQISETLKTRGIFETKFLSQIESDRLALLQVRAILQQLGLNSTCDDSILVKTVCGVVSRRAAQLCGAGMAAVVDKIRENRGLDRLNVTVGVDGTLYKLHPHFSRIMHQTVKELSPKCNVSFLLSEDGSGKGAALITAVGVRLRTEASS

[1] = growth suppression of PTEN-null colon cells, dose response, cell-based, HCT116 PTEN knockout (AID 1047); assay type: functional;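 further: HCT116 colon tumor cells with PTEN knocked out; cells exposed to compound for 60 hours before readout; potency for loss of cell viability measured by luminescence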
[2] = ZM109 Env clade C HIV-1 fusion inhibitors, dose response, HeLa effector, CEM target cells, luciferase, cherry-pick (AID 652058); assay type: functional, cell-based
[3] = molecular target: T2, 1-phosphatidylinositol 4,5-bisphosphate phosphodiesterase beta-3 (Homo sapiens, UniProt Q01970); test: Fluorescence-based biochemical high throughput dose response assay to identify inhibitors of phospholipase C isozymes (PLC-B3).
T2 sequence (Q01970 whole entry): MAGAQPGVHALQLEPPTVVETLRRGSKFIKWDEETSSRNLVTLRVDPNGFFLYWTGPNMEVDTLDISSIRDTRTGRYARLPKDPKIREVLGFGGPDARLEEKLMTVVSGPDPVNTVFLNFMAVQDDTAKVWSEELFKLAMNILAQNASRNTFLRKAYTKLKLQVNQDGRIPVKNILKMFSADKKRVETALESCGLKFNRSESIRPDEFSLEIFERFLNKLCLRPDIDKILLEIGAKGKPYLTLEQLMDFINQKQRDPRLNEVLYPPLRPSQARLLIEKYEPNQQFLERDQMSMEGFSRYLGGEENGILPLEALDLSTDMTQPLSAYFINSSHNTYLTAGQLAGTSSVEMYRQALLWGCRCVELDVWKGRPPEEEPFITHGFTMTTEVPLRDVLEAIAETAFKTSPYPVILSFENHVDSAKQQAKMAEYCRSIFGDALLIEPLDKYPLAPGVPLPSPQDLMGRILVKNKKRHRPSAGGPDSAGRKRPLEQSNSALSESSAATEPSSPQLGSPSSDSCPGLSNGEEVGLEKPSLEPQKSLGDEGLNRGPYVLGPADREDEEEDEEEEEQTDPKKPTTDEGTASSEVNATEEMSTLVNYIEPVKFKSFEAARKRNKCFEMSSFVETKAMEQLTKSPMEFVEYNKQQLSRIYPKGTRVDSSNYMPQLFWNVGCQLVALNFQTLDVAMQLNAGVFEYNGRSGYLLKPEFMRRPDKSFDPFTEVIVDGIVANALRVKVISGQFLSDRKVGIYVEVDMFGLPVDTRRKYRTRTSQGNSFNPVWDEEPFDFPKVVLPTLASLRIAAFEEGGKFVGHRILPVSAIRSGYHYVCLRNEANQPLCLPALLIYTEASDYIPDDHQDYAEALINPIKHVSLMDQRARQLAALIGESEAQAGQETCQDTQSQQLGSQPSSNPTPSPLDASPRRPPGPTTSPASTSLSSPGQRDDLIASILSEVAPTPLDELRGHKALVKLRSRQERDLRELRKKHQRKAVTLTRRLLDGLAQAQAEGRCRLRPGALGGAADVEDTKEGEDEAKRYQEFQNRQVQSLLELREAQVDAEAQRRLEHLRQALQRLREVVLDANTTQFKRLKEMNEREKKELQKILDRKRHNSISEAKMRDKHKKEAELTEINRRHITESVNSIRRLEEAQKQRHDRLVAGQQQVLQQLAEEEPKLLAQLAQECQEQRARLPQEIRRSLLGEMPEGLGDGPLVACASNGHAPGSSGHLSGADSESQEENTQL

[4] = molecular target: Serine/threonine-protein kinase TAO1 (Homo sapiens, UniProt Q7L7X3); assay type: functional
Chain of Serine/threonine-protein kinase TAO1 (Q7L7X3 whole entry): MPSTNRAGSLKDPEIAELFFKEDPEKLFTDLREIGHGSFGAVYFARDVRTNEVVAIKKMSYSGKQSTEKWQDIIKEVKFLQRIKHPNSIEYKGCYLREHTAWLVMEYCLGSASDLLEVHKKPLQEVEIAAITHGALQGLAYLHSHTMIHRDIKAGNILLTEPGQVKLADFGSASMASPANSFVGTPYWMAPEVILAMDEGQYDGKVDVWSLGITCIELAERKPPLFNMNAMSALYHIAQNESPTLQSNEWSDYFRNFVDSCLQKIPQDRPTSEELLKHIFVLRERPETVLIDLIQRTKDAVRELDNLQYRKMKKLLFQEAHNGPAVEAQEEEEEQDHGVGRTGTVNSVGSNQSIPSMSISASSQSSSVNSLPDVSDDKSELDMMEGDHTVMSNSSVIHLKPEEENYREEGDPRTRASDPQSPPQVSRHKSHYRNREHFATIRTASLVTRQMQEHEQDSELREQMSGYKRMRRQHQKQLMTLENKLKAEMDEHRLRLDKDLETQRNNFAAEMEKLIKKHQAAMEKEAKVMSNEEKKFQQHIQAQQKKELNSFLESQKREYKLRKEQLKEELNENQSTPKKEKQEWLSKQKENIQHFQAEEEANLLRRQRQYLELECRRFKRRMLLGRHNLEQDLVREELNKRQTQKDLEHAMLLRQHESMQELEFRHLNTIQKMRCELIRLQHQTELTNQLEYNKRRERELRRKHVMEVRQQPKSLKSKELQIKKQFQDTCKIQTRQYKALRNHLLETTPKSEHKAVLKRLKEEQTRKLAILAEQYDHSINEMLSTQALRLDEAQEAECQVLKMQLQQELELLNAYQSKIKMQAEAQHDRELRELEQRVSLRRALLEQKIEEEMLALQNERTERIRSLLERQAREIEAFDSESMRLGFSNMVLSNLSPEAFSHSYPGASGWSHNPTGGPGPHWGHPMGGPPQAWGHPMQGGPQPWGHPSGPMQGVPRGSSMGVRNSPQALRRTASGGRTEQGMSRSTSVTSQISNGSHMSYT

[5] = molecular target: ALK tyrosine kinase receptor (Homo sapiens, UniProt Q9UM73); assay type: functional;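 further: ALK tested as one member of a kinase panel screen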
Chain of ALK tyrosine kinase receptor (Q9UM73 whole entry): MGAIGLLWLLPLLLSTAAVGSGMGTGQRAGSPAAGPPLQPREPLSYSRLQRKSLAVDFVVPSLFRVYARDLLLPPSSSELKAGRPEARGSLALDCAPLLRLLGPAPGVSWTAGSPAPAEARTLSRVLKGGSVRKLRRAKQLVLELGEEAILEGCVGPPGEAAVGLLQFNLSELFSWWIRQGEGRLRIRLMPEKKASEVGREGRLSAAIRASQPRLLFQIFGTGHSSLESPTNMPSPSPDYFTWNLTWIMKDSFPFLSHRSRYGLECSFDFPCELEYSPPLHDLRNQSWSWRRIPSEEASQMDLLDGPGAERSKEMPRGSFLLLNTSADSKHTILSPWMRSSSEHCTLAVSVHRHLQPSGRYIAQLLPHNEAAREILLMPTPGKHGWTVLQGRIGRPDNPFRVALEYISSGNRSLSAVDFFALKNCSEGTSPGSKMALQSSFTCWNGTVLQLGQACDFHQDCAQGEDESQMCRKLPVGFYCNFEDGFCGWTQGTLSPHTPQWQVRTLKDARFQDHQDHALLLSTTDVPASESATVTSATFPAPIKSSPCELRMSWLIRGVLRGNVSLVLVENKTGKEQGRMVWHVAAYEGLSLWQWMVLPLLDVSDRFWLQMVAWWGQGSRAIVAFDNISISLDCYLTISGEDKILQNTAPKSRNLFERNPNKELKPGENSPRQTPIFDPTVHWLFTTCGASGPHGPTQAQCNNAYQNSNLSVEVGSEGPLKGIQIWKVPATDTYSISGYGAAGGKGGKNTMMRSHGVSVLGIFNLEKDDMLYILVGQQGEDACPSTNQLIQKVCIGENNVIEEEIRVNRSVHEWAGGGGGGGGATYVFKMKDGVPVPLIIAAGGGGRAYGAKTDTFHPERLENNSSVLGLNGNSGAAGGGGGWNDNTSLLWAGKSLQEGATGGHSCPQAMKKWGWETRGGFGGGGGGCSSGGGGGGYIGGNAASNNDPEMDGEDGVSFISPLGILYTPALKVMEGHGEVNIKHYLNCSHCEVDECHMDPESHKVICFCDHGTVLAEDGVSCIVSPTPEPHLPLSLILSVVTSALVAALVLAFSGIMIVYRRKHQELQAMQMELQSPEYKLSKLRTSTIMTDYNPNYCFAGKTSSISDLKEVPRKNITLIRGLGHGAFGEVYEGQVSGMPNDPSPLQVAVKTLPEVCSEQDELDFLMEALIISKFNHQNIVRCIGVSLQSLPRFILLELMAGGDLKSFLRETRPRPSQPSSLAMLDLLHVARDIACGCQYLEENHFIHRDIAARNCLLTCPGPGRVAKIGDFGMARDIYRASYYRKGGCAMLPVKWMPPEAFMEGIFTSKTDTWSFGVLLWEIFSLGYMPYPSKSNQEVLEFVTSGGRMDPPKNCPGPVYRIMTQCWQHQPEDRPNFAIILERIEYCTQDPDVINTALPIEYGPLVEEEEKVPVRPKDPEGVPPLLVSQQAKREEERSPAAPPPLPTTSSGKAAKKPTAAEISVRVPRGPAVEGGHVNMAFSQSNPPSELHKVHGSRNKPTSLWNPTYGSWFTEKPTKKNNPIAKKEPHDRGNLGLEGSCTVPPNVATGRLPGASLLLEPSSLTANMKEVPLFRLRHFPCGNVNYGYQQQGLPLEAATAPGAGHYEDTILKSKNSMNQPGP

[6] = molecular target: MAP kinase-interacting serine/threonine-protein kinase 2 (Homo sapiens, UniProt Q9HBH9); assay type: functional
Chain of MAP kinase-interacting serine/threonine-protein kinase 2 (Q9HBH9 whole entry): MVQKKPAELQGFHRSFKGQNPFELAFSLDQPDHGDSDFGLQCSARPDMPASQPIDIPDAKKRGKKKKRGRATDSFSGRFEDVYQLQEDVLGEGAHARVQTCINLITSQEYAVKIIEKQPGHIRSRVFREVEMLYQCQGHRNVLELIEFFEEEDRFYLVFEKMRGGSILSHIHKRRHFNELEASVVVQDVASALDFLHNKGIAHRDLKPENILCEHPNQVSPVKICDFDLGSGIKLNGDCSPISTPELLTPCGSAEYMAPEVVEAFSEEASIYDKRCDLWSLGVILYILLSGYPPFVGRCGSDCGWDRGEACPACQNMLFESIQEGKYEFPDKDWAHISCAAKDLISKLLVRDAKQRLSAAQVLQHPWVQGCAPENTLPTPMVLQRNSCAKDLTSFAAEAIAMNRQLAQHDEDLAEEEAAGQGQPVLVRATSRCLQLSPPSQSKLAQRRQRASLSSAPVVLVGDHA

[7] = molecular target: Glycogen synthase kinase-3 beta (Homo sapiens, UniProt P49841); assay type: functional;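 further: value comes from a broad kinome profiling panel, with GSK3B as the panel member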
Chain of Glycogen synthase kinase-3 beta (P49841 whole entry): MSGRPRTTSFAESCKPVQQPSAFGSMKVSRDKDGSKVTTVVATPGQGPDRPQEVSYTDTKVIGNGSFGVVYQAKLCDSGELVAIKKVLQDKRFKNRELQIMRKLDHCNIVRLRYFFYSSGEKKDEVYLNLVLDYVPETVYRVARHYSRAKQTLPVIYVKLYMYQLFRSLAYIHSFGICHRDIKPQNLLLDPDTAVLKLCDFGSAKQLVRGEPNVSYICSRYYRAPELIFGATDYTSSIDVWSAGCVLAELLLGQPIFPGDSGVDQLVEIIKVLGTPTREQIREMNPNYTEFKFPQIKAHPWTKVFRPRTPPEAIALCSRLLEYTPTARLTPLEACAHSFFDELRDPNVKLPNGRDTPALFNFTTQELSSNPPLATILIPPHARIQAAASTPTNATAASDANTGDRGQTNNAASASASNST

Nonstructural protein 1 = Nonstructural protein 1 (Influenza A virus, UniProt Q194T2); assay type: functional, Influenza A virus (A/California/07/2009(H1N1))
LIM domain kinase 1 = LIM domain kinase 1 (Homo sapiens, UniProt P53667); test: Navigating the Kinome. Panel member name: LIMK1; assay type: functional
[8] = molecular target: Mitogen-activated protein kinase 13 (Homo sapiens, UniProt O15264); assay type: functional
Chain of Mitogen-activated protein kinase 13 (O15264 whole entry): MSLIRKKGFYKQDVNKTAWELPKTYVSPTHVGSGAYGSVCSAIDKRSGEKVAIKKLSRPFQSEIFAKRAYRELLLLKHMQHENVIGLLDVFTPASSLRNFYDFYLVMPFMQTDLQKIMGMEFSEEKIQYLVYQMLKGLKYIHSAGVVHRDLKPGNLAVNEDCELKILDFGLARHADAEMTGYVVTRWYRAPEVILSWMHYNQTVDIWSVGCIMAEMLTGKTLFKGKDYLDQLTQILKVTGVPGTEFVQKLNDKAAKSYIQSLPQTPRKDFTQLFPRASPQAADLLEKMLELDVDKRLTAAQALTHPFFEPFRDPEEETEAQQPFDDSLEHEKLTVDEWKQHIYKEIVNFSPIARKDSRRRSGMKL

Focal adhesion kinase 1 = Focal adhesion kinase 1 (Homo sapiens, UniProt Q05397); assay type: functional;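 further: measured as one member of a kinome panel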
Chain of Focal adhesion kinase 1 (Q05397 whole entry): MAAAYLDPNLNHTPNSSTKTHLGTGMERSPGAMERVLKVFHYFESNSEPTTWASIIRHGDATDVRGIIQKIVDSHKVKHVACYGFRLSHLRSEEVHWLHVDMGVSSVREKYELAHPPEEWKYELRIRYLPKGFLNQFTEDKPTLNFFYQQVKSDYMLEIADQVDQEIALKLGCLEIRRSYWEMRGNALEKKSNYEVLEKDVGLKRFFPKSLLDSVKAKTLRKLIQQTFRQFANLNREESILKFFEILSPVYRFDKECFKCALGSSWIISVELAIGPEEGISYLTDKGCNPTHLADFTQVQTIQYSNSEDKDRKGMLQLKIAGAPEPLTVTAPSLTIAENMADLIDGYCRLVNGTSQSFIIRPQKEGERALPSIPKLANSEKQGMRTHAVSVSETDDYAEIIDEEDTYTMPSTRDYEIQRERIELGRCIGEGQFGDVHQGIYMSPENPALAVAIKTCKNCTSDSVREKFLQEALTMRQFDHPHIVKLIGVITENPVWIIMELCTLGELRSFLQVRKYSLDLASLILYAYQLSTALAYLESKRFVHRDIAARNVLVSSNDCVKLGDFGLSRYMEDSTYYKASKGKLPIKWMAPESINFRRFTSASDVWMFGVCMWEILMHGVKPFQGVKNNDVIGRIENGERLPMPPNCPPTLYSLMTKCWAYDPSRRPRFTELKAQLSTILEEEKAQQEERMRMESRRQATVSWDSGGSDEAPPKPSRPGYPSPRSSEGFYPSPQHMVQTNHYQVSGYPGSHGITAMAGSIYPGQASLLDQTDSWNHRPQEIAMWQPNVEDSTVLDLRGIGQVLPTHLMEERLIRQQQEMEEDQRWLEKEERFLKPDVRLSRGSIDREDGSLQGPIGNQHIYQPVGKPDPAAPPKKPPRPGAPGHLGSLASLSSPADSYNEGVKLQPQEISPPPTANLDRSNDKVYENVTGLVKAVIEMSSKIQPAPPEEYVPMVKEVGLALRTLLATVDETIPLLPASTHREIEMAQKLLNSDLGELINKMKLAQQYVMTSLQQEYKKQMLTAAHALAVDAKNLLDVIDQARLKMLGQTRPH

O=C(O)c1ccc(NC2=C(Cl)C(=O)c3ccccc3C2=O)cc1
EC50 (Hexokinase-1): 10.6 µM (active)

O=C(O)c1ccc2c3c(ncnc13)-c1ccccc1C2=O
EC50 [1]: 16.1 µM (active)

CCOC(=O)c1c2c(n(Cc3ccccc3)c1C)C(=O)C(=O)c1ccccc1-2
AC50 [2]: 10.9 µM (active) | IC50 [3]: > 123 µM (inactive)

Cc1ccc2nccc(NC(=O)Nc3cccc(C(F)(F)F)n3)c2c1
Ki [4]: > 6.31 µM (inactive) | Ki [5]: > 3.98 µM (inactive) | Ki [6]: > 10 µM (inactive)

Cc1nn(C)c2sc3c(=O)[nH]cnc3c12
Ki [7]: 39.8 µM (active)

Cc1c(/N=C2\C=CC(=O)c3ccccc32)c(=O)n(-c2ccccc2)n1C
IC50 (Nonstructural protein 1): 28.7 µM (active)

COc1cc2c(cc1F)C(c1ccccc1Cl)=Nc1c(n[nH]c1C)N2 [RG-1530]
Ki (LIM domain kinase 1): 0.501 µM (active) | Ki [8]: > 7.94 µM (inactive) | Ki (Focal adhesion kinase 1): 0.0126 µM (active)
